# Laboratory results reported in patent US8080657B2, “Compounds of reverse turn mimetics and the use thereof” (Choongwae Pharma Corporation, priority 2008, dated 2011).
# System: Wnt signaling
# Assay: TopFlash reporter gene bioassay in SW480 cells
# Format: cell-based
# Details: Homo sapiens, SW480, TopFlash reporter gene assay, inhibition of Wnt signaling; read-out: RGA, IC50 (μM) TopF
row,SMILES,IC50 [µM]
1,C=CCN1CC(=O)N2[C@@H](Cc3ccc(O)cc3)C(=O)N(Cc3cccnc3-c3ccccc3OC)C[C@@H]2N1C(=O)NCc1ccccc1 [compound 165],17.2 ± 4.11
2,C=CCN1CC(=O)N2[C@@H](Cc3ccc(O)cc3)C(=O)N(Cc3cn(-c4cccc(F)c4)c4ccccc34)C[C@@H]2N1C(=O)NCc1ccccc1 [compound 166],17.5 ± 5.57
3,C=CCN1CC(=O)N2[C@@H](Cc3ccc(O)cc3)C(=O)N(Cc3csc4c(NC(=O)OC)cccc34)C[C@@H]2N1C(=O)NCc1ccccc1 [compound 167],19.4 ± 3.4
4,C=CCN1CC(=O)N2[C@@H](Cc3ccc(O)cc3)C(=O)N(Cc3cccc(C(N)=O)n3)C[C@@H]2N1C(=O)NCc1ccccc1 [compound 168],2.01 ± 0.2
5,C=CCOc1cccc(CN2C[C@H]3N(C(=O)CN(CC=C)N3C(=O)NCc3ccccc3)[C@@H](Cc3ccc(O)cc3)C2=O)c1 [compound 169],2.01 ± 0.34
6,C=CCN1CC(=O)N2[C@@H](Cc3ccc(O)cc3)C(=O)N(Cc3ccccc3S(=O)(=O)c3ccc(Cl)cc3)C[C@@H]2N1C(=O)NCc1ccccc1 [compound 170],2.07 ± 0.43
7,C=CCN1CC(=O)N2[C@@H](Cc3ccc(O)cc3)C(=O)N(Cc3cccc(OC)c3OCCN3CCCCC3)C[C@@H]2N1C(=O)NCc1ccccc1 [compound 173],2.26 ± 0.16
8,C=CCN1CC(=O)N2[C@@H](Cc3ccc(O)cc3)C(=O)N(Cc3ccc4ccn(S(=O)(=O)c5ccc(C)cc5)c4c3)C[C@@H]2N1C(=O)NCc1ccccc1 [compound 174],2.33 ± 0.64
9,C=CCN1CC(=O)N2[C@@H](Cc3ccc(O)cc3)C(=O)N(Cc3ccc(OC)c(OC)c3)C[C@@H]2N1C(=O)NCc1ccccc1 [compound 175],2.36 ± 0.57
10,C=CCN1CC(=O)N2[C@@H](Cc3ccc(O)cc3)C(=O)N(Cc3ccnc(-c4ccccc4)n3)C[C@@H]2N1C(=O)NCc1ccccc1 [compound 176],2.37 ± 0.22
11,C=CCN1CC(=O)N2[C@@H](Cc3ccc(O)cc3)C(=O)N(Cc3cccc(Br)n3)C[C@@H]2N1C(=O)NCc1ccccc1 [compound 177],2.37 ± 0.35
12,C=CCN1CC(=O)N2C(CN(Cc3cccc(-c4ccc(SC)cc4)n3)C(=O)[C@@H]2Cc2ccc(O)cc2)N1C(=O)NCc1ccccc1 (stereo partly shown) [compound 179],2.42 ± 0.32
13,C=CCN1CC(=O)N2[C@@H](Cc3ccc(O)cc3)C(=O)N(Cc3cccnc3-c3ccc(OC)cc3)C[C@@H]2N1C(=O)NCc1ccccc1 [compound 180],2.42 ± 0.47
14,C=CCN1CC(=O)N2[C@@H](Cc3ccc(O)cc3)C(=O)N(Cc3cccc(NS(C)(=O)=O)c3)C[C@@H]2N1C(=O)NCc1ccccc1 [compound 181],2.47 ± 0.37
15,C=CCN1CC(=O)N2[C@@H](Cc3ccc(O)cc3)C(=O)N(Cc3cccc(C(=O)NOC)c3)C[C@@H]2N1C(=O)NCc1ccccc1 [compound 182],2.48 ± 0.22
16,C=CCN1CC(=O)N2[C@@H](Cc3ccc(O)cc3)C(=O)N(Cc3cccc(C(=O)NC)c3)C[C@@H]2N1C(=O)NCc1ccccc1 [compound 183],52.5 ± 0.32
17,C#Cc1ccc(CNC(=O)N2[C@H]3CN(Cc4cccc(OC)c4OC)C(=O)[C@H](Cc4ccc(O)cc4)N3C(=O)CN2CC=C)cc1 [compound 184],2.56 ± 0.29
18,C=CCN1CC(=O)N2[C@@H](Cc3ccc(O)cc3)C(=O)N(Cc3cccc(-c4ccccc4)n3)C[C@@H]2N1C(=O)NCc1ccccc1 [compound 186],2.66 ± 0.74
19,C=CCN1CC(=O)N2[C@@H](Cc3ccc(O)cc3)C(=O)N(Cc3cccc4ccn(-c5ccccn5)c34)C[C@@H]2N1C(=O)NCc1ccccc1 [compound 187],2.67 ± 0.28
20,C=CCN1CC(=O)N2[C@@H](Cc3ccc(O)cc3)C(=O)N(Cc3ccccc3S(C)(=O)=O)C[C@@H]2N1C(=O)NCc1ccccc1 [compound 188],2.67 ± 0.59
21,C=CCN1CC(=O)N2[C@@H](Cc3ccc(O)cc3)C(=O)N(Cc3cccc(-c4cccc(C#N)c4)n3)C[C@@H]2N1C(=O)NCc1ccccc1 [compound 191],2.81 ± 0.52
22,C=CCN1CC(=O)N2[C@@H](CC3=CC(=O)NC3=O)C(=O)N(Cc3cccc4scnc34)C[C@@H]2N1C(=O)NCc1ccccc1 [compound 192],2.85 ± 0.79
23,C=CCN1CC(=O)N2[C@@H](Cc3ccc(O)cc3)C(=O)N(Cc3ccc(OC)c(F)c3)C[C@@H]2N1C(=O)NCc1ccccc1 [compound 193],2.86 ± 0.49
24,C=CCN1CC(=O)N2[C@@H](Cc3ccc(O)cc3)C(=O)N(Cc3cccc(C(=O)OCC)n3)C[C@@H]2N1C(=O)NCc1ccccc1 [compound 194],2.89 ± 0.5

row,SMILES,IC50 [µM]
1,C=CCN1CC(=O)N2[C@@H](Cc3ccc(O)cc3)C(=O)N(Cc3csc4ccc(NC(N)=O)cc34)C[C@@H]2N1C(=O)NCc1ccccc1 [compound 195],20.9 ± 3.94
2,C=CCN1CC(=O)N2[C@@H](Cc3ccc(O)cc3C)C(=O)N(Cc3ccc(F)cc3F)C[C@@H]2N1C(=O)NCc1ccccc1 [compound 196],21.2 ± 2.15
3,C=CCN1CC(=O)N2[C@@H](Cc3ccc(O)cc3)C(=O)N(Cc3cccc(C(=O)N(C)C)n3)C[C@@H]2N1C(=O)NCc1ccccc1 [compound 197],21.8 ± 3.69
4,C=CCN1CC(=O)N2[C@@H](Cc3ccc(O)cc3)C(=O)N(Cc3cccnc3-c3cccnc3)C[C@@H]2N1C(=O)NCc1ccccc1 [compound 198],22.2 ± 5.69
5,C=CCN1CC(=O)N2[C@@H](Cc3ccc(O)cc3)C(=O)N(Cc3cccnc3N3CCC(N4CCCC4)CC3)C[C@@H]2N1C(=O)NCc1ccccc1 [compound 199],25.9 ± 3.38
6,C=CCN1CC(=O)N2[C@@H](Cc3ccc(O)cc3)C(=O)N(Cc3csc4ccc(N(Cc5ccccc5)Cc5ccccc5)cc34)C[C@@H]2N1C(=O)NCc1ccccc1 [compound 200],25.9 ± 4.72
7,C=CCN1CC(=O)N2[C@@H](Cc3ccc(O)cc3)C(=O)N(Cc3csc4cc(NC(N)=O)ccc34)C[C@@H]2N1C(=O)NCc1ccccc1 [compound 201],26.1 ± 7.1
8,C=CCN1CC(=O)N2[C@@H](Cc3ccc(O)cc3)C(=O)N(Cc3csc4cc(NS(N)(=O)=O)ccc34)C[C@@H]2N1C(=O)NCc1ccccc1 [compound 202],28.8 ± 5.69
9,C=CCN1CC(=O)N2[C@@H](Cc3ccc(O)cc3)C(=O)N(Cc3cccc4ccn(Cc5cccc([N+](=O)[O-])c5)c34)C[C@@H]2N1C(=O)NCc1ccccc1 [compound 204],3.13 ± 0.44
10,C=CCN1CC(=O)N2[C@@H](Cc3ccc(O)cc3)C(=O)N(Cc3csc4c(N)cccc34)C[C@@H]2N1C(=O)NCc1ccccc1 [compound 206],3.18 ± 0.75
11,C=CCN1CC(=O)N2[C@@H](Cc3ccc(O)cc3)C(=O)N(Cc3cccc(C(N)=O)c3)C[C@@H]2N1C(=O)NCc1ccccc1 [compound 207],3.25 ± 0.41
12,C=CCN1CC(=O)N2[C@@H](Cc3ccc(O)cc3)C(=O)N(Cc3ccc(OC)c(-c4cccnc4)c3)C[C@@H]2N1C(=O)NCc1ccccc1 [compound 208],3.27 ± 0.8
13,C=CCN1CC(=O)N2[C@@H](Cc3ccc(O)cc3)C(=O)N(Cc3cccc(-c4ncc[nH]4)c3)C[C@@H]2N1C(=O)NCc1ccccc1 [compound 209],3.3 ± 0.58
14,C=CCN1CC(=O)N2[C@@H](Cc3ccc(O)cc3)C(=O)N(Cc3cccc(C(=O)NNC(=O)OC(C)(C)C)c3)C[C@@H]2N1C(=O)NCc1ccccc1 [compound 210],3.57 ± 0.89
15,C=CCN1CC(=O)N2[C@@H](Cc3ccc(O)cc3)C(=O)N(Cc3cn(S(=O)(=O)c4ccc(C)cc4)c4ccccc34)C[C@@H]2N1C(=O)NCc1ccccc1 [compound 211],3.61 ± 0.47
16,C=CCN1CC(=O)N2[C@@H](Cc3ccc(O)cc3)C(=O)N(Cc3cccc(C(=O)N4CCOCC4)c3)C[C@@H]2N1C(=O)NCc1ccccc1 [compound 212],3.62 ± 0.63
17,C=CCN1CC(=O)N2[C@@H](Cc3ccc(O)cc3)C(=O)N(Cc3cccc4ccn(Cc5cccc(N)c5)c34)C[C@@H]2N1C(=O)NCc1ccccc1 [compound 213],3.62 ± 0.65
18,C=CCN1CC(=O)N2[C@@H](Cc3ccc(O)cc3)C(=O)N(Cc3ccc(OCCCC)cc3)C[C@@H]2N1C(=O)NCc1ccccc1 [compound 214],3.72 ± 0.47
19,C=CCN1CC(=O)N2[C@@H](Cc3ccc(O)cc3)C(=O)N(Cc3cccc(-c4cccnc4)n3)C[C@@H]2N1C(=O)NCc1ccccc1 [compound 217],3.87 ± 0.45
20,C=CCN1CC(=O)N2[C@@H](Cc3ccc(O)cc3)C(=O)N(Cc3cccc(-c4cccc(OC)c4)n3)C[C@@H]2N1C(=O)NCc1ccccc1 [compound 218],3.96 ± 0.93
21,C=CCN1CC(=O)N2[C@@H](Cc3ccc(O)cc3)C(=O)N(Cc3ccccc3Sc3ccc(Cl)cc3)C[C@@H]2N1C(=O)NCc1ccccc1 [compound 219],3.97 ± 0.57
22,C=CCN1CC(=O)N2[C@@H](Cc3ccc(OS(=O)(=O)NC(=O)OCCN(C)C)cc3)C(=O)N(Cc3cccc4c(C(=O)C5CC5)c[nH]c34)C[C@@H]2N1C(=O)NCc1ccccc1 [compound 220],33.1 ± 4.07
23,C=CCN1CC(=O)N2C(Cc3ccc(O)cc3)C(=O)N(Cc3ccccc3N3CCNCC3)CC2N1C(=O)NCc1ccccc1 (stereo not shown) [compound 221],36.1 ± 2.69
24,C=CCN1CC(=O)N2[C@@H](Cc3ccc(OCC(O)CO)cc3)C(=O)N(Cc3cccc4scnc34)C[C@@H]2N1C(=O)NCc1ccccc1 (stereo partly shown) [compound 222],36.4 ± 2

# Same assay, conditions: Homo sapiens, SW480; read-out: RGA, IC50 (μM) TopF
row,SMILES,IC50 [µM]
1,C=CCN1CC(=O)N2[C@@H](Cc3ccc(OP(=O)(O)O)cc3)C(=O)N(Cc3cccc(OCCN4CCOCC4)c3)C[C@@H]2N1C(=O)NCc1ccccc1 [compound 172],2.21 ± 0.35
2,C=CCN1CC(=O)N2[C@@H](Cc3ccc(O)cc3)C(=O)N(Cc3csc4ccc(NC=O)cc34)C[C@@H]2N1C(=O)NCc1ccccc1 [compound 185],2.61 ± 0.19
3,C=CCN1CC(=O)N2[C@@H](Cc3ccc(O)cc3)C(=O)N(Cc3cccc(C(=O)N4CCCC4)c3)C[C@@H]2N1C(=O)NCc1ccccc1 [compound 189],2.68 ± 0.48
4,C=CCN1CC(=O)N2[C@@H](Cc3ccc(O)cc3)C(=O)N(Cc3cccc4cc[nH]c34)C[C@@H]2N1C(=O)NCc1ccccn1 [compound 205],3.14 ± 0.68
5,C=CCN1CC(=O)N2[C@@H](Cc3ccc(OP(=O)(O)O)cc3)C(=O)N(Cc3ccc(OC)cc3F)C[C@@H]2N1C(=O)NCc1ccccc1 [compound 216],3.8 ± 1.1

# Same assay, conditions: TopFlash reporter gene assay, inhibition of Wnt signaling; read-out: RGA, IC50 (μM) TopF
row,SMILES,IC50 [µM]
1,C=CCN1CC(=O)N2[C@@H](Cc3ccc(O)cc3)C(=O)N(Cc3ccc(F)c4scnc34)C[C@@H]2N1C(=O)NCc1cccs1 [compound 171],2.1 ± 0.34
2,C=CCN1CC(=O)N2[C@@H](Cc3ccc(O)cc3)C(=O)N(Cc3ccc(F)c4scnc34)C[C@@H]2N1C(=O)NCCc1ccccc1 [compound 178],2.38 ± 0.75
